Data set [1] in a line: clinical. The following applies: human, in vivo.
For data set [2] the following is noted: imatinib in plasma, MAD Day 7, mean.
Data set [3] in a line: clinical. The note with it: human, plasma; for AUC / AUC(0-t) / Cmax: inhaled or intranasal; for Cmax / concentration at 7 day: imatinib in plasma, mean; for concentration at 7 day: inhaled.

Broadly, the AUC(0-t) is exposure summed from dosing to a finite time, without extrapolation to infinity. Higher therefore signals more exposure. One may read the Cmax as the maximum level reached in the sampled fluid or tissue. By Tmax is commonly meant the time at which the peak concentration occurs. A word on the AUC: it is concentration integrated over time. Read a low AUC as less exposure.

Each structure is given as a SMILES string. Where a name gives a salt, the structure may show the parent alone. Read-outs that look alike come from different tables or passages of the source.

Turning to `Cc1ccc(NC(=O)c2ccc(CN3CCN(C)CC3)cc2)cc1Nc1nccc(-c2cccnc2)n1` [AV-101, imatinib], the AUC(0-t) worked out at 9.9 ng·h/mL in data set [1] (inhaled or intranasal, 1 mg); 65.4 ng·h/mL in data set [1] (inhaled or intranasal, 3 mg); 319 ng·h/mL in data set [1] (inhaled or intranasal, 10 mg); 1280 ng·h/mL in data set [1] (inhaled or intranasal, 30 mg); 6670 ng·h/mL in data set [1] (inhaled or intranasal, 90 mg); 182 ng·h/mL in data set [3] (10 mg). Besides, the AUC(0-t) is 673 ng·h/mL in data set [3] (30 mg) and 2210 ng·h/mL in data set [3] (90 mg). Also, the Cmax in data set [1] (inhaled or intranasal, 1 mg) was determined as 1.16 ng/mL; in data set [1] (inhaled or intranasal, 3 mg), 3.81 ng/mL; in data set [1] (inhaled or intranasal, 10 mg), 20.2 ng/mL; in data set [1] (inhaled or intranasal, 30 mg), 73.8 ng/mL; in data set [1] (inhaled or intranasal, 90 mg), 424 ng/mL; in data set [3] (10 mg, MAD Day 1, inhaled 10 mg AV-101), 24.1 ng/mL. Moreover, the Cmax in data set [3] (10 mg, ss, MAD Day 7, inhaled 10 mg AV-101 BID) was 69.2 ng/mL; in data set [3] (30 mg, MAD Day 1, inhaled 30 mg AV-101), 88.7 ng/mL; in data set [3] (30 mg, ss, MAD Day 7, inhaled 30 mg AV-101 BID), 215 ng/mL; in data set [3] (90 mg, MAD Day 1, inhaled 90 mg AV-101), 262 ng/mL; in data set [3] (90 mg, ss, MAD Day 7, inhaled 90 mg AV-101 BID), 890 ng/mL. Also, the Tmax in data set [1] (inhaled or intranasal, 1 mg) was found to be 3 h; in data set [1] (inhaled or intranasal, 10 mg) it was 0.18 h. The values for the Fluctuation in data set [2] (inhaled 10 mg AV-101 BID), in data set [2] (inhaled 30 mg AV-101 BID) and in data set [2] (inhaled 90 mg AV-101 BID) were 78.28%, 70.30% and 67.18%, respectively. In addition, the AUC in data set [3] (10 mg) is 590 ng·h/mL; in data set [3] (30 mg) it was 1920 ng·h/mL; in data set [3] (90 mg), 7970 ng·h/mL. In addition, the concentration at 7 day stood at 49.1 ng/mL in data set [3] (10 mg, Cav, MAD Day 7, inhaled 10 mg AV-101 BID); 31.7 ng/mL in data set [3] (10 mg, Cmin, ss, MAD Day 7, inhaled 10 mg AV-101 BID); 160 ng/mL in data set [3] (30 mg, Cav, MAD Day 7, inhaled 30 mg AV-101 BID); 118 ng/mL in data set [3] (30 mg, Cmin, ss, MAD Day 7, inhaled 30 mg AV-101 BID); 664 ng/mL in data set [3] (90 mg, Cav, MAD Day 7, inhaled 90 mg AV-101 BID); 534 ng/mL in data set [3] (90 mg, Cmin, ss, MAD Day 7, inhaled 90 mg AV-101 BID).
In the case of `Cc1ccc(NC(=O)c2ccc(CN3CCN(C)CC3)cc2)cc1Nc1nccc(-c2cccnc2)n1` [Imatinib, imatinib mesylate, reference compound], in data set [1] (po, 400 mg), the AUC(0-t) is 32700 ng·h/mL and the Cmax was 1710 ng/mL.

The record behind these values is patent US20240325390A1 (Aerovate Therapeutics, Inc., priority 2020, published 2024).
